The assay concerns the target Apoptosis regulator Bcl-2 (Homo sapiens, UniProt P10415). Nature of the assay: Fluorescence Polarization Assay. The conditions noted are these: pH 7.4; 23 °C. Here is the method:
FPAs were performed using various concentrations of GST-Bcl-2 family proteins, incubated with FITC-conjugated peptide substrates in the presence of inhibitor compound. […] IC50 was determined by fitting the experimental data to a sigmoidal dose-response nonlinear regression model (SigmaPlot 10.0.1, Systat Software, Inc., San Jose, CA). Data reported are the mean of three independent experiments.

The IC50 is the concentration that gives 50% inhibition. A higher IC50 goes with weaker potency.

Sequence of Apoptosis regulator Bcl-2 (P10415 whole entry): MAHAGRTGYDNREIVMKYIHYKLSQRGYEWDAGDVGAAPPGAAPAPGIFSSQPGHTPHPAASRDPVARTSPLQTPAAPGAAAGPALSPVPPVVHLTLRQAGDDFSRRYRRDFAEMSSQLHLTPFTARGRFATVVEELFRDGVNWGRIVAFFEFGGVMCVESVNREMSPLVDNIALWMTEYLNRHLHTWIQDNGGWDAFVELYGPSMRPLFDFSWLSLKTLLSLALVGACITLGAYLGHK

Turning to `Cc1cc2c(C(C)C)c(O)c(O)cc2c(O)c1-c1c(C)cc2c(C(C)C)c(O)c(O)cc2c1O` [Apogossypol], half-maximal inhibition (IC50) required 4.3 µM. This counts as single-digit micromolar.

(Values after BindingDB's records for doi:10.1021/jm900472s (Burnham Institute For Medical Research, 2009).)
